According to ChEMBL document CHEMBL1201862, “PubChem BioAssay data set” (2004):
Calls of active or inactive are those of the source.

How the values were obtained:
[1] = molecular target: Protein kinase C theta type (Homo sapiens, UniProt Q04759); assay: Navigating the Kinome. Panel member name: PRKCQ; assay type: functional
[2] = molecular target: Ribosomal protein S6 kinase alpha-3 (Homo sapiens, UniProt P51812); assay type: functional;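 note: measured within a kinome-wide profiling panel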
[3] = molecular target: Dual specificity mitogen-activated protein kinase kinase 1 (Homo sapiens, UniProt Q02750); assay: Navigating the Kinome. Panel member name: MAP2K1; assay type: functional
Dual specificity mitogen-activated protein kinase kinase 1, sequence (Q02750 whole entry): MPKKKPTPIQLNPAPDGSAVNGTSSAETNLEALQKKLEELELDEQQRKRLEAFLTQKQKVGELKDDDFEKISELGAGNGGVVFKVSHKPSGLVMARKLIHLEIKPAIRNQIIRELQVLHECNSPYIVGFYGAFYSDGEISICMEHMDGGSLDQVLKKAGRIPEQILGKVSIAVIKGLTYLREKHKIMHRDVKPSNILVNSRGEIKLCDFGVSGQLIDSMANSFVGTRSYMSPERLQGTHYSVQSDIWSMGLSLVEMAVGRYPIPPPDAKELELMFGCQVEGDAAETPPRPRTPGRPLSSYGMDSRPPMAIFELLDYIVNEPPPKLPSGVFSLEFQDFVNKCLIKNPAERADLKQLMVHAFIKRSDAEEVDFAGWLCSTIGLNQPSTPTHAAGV

[4] = molecular target: Serine/threonine-protein kinase TBK1 (Homo sapiens, UniProt Q9UHD2); assay: Navigating the Kinome. Panel member name: TBK1; assay type: functional
[5] = molecular target: Proto-oncogene tyrosine-protein kinase receptor Ret (Homo sapiens, UniProt P07949); assay type: functional;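 note: measured within a kinome-wide profiling panel, RET as the panel member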
[6] = molecular target: Tyrosine-protein kinase Lck (Homo sapiens, UniProt P06239); assay type: functional;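 note: lck was assayed as one member of a kinase panel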
[7] = molecular target: Mitogen-activated protein kinase 8 (Homo sapiens, UniProt P45983); assay type: functional;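 note: value comes from one member of a kinome-wide kinase profiling panel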
Mitogen-activated protein kinase 8, sequence (P45983 whole entry): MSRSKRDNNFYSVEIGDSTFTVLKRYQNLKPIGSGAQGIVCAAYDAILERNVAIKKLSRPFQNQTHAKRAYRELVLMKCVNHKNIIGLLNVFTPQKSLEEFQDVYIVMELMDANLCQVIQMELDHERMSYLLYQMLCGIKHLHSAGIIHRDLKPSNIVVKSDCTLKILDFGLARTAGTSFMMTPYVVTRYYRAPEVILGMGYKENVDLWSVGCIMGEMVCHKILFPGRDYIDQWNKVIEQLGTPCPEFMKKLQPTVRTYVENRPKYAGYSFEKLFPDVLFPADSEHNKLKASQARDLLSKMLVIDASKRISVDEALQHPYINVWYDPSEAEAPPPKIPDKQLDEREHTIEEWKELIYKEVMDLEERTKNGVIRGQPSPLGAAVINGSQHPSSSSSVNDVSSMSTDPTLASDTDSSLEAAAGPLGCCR

[8] = molecular target: Serine/threonine-protein kinase pim-1 (Homo sapiens, UniProt P11309); assay type: functional
[9] = molecular target: Serine/threonine-protein kinase PAK 4 (Homo sapiens, UniProt O96013); assay type: functional;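 note: value obtained within a kinome profiling panel in which PAK4 was one of the panel members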
[10] = molecular target: Fibroblast growth factor receptor 1 (Homo sapiens, UniProt P11362); assay type: functional
[11] = molecular target: Casein kinase I isoform alpha (Homo sapiens, UniProt P48729); assay type: functional
Activated CDC42 kinase 1 = Activated CDC42 kinase 1 (Homo sapiens, UniProt Q07912); assay: Navigating the Kinome. Panel member name: ACK1; assay type: functional
Activated CDC42 kinase 1, sequence (Q07912 whole entry): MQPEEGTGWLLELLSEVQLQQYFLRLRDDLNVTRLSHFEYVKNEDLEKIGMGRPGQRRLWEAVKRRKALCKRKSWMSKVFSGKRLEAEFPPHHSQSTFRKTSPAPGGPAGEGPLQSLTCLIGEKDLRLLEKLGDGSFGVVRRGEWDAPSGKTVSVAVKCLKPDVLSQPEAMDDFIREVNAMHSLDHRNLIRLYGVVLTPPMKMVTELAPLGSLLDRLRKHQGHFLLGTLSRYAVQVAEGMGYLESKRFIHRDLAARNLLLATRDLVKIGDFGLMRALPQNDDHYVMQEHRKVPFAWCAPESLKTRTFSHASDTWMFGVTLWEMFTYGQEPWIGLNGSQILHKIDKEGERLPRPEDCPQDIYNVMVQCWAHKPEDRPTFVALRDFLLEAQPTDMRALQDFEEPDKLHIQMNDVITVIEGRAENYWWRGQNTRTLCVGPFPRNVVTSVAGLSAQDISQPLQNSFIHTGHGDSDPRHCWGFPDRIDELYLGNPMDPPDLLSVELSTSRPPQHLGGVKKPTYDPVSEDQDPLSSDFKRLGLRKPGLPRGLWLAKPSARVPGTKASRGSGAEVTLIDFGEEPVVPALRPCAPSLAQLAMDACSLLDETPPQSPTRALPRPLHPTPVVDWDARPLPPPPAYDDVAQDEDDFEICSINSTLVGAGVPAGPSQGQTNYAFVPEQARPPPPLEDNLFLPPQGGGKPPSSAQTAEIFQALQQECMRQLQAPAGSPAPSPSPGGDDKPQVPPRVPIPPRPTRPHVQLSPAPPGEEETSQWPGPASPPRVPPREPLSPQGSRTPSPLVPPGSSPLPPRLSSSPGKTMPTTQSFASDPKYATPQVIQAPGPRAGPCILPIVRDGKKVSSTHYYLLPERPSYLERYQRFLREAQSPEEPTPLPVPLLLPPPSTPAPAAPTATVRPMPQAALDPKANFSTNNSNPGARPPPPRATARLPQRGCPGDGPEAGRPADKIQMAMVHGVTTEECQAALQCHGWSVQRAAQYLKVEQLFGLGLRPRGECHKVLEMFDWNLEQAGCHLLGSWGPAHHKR

[12] = molecular target: G protein-coupled receptor kinase 5 (Homo sapiens, UniProt P34947); assay: Navigating the Kinome. Panel member name: GPRK5; assay type: functional
G protein-coupled receptor kinase 5, sequence (P34947 whole entry): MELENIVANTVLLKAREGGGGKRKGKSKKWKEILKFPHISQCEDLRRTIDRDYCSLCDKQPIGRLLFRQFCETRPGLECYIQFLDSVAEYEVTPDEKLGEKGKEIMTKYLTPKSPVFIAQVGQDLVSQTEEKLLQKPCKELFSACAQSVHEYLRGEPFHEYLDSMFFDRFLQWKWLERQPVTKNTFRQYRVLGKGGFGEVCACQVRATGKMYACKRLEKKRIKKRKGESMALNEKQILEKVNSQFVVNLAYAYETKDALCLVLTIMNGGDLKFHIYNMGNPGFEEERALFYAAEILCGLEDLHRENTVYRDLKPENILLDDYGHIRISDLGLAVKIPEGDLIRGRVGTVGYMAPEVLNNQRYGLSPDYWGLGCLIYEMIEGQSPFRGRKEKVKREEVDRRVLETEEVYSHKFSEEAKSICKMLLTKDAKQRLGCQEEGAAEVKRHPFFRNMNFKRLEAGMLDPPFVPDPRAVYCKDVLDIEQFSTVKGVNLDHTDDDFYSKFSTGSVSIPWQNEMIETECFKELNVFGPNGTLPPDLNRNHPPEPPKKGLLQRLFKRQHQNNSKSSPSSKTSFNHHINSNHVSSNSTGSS

[13] = molecular target: Insulin-like growth factor 1 receptor (Homo sapiens, UniProt P08069); assay: Navigating the Kinome. Panel member name: IGF1R; assay type: functional
[14] = molecular target: cAMP-dependent protein kinase catalytic subunit PRKX (Homo sapiens, UniProt P51817); assay type: functional
[15] = molecular target: Tyrosine-protein kinase Fyn (Homo sapiens, UniProt P06241); assay type: functional
Tyrosine-protein kinase Fyn, sequence (P06241 whole entry): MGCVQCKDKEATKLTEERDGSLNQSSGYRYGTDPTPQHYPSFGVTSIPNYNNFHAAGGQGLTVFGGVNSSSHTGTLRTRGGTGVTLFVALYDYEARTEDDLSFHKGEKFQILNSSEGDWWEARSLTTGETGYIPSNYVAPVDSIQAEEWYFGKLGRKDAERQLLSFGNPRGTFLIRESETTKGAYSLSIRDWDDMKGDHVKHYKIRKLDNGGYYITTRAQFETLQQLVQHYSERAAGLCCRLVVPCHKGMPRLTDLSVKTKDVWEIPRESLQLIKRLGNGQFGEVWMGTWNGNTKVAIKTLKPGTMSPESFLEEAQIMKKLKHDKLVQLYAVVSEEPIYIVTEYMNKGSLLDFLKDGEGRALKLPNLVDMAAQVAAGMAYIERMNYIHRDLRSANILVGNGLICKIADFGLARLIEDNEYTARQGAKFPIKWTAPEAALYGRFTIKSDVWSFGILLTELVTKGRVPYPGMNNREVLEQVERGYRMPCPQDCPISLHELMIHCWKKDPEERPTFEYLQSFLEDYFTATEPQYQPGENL

[16] = molecular target: Cyclin-dependent kinase 8 (Homo sapiens, UniProt P49336); assay: Navigating the Kinome. Panel member name: CDK8; assay type: functional
Cyclin-dependent kinase 8, sequence (P49336 whole entry): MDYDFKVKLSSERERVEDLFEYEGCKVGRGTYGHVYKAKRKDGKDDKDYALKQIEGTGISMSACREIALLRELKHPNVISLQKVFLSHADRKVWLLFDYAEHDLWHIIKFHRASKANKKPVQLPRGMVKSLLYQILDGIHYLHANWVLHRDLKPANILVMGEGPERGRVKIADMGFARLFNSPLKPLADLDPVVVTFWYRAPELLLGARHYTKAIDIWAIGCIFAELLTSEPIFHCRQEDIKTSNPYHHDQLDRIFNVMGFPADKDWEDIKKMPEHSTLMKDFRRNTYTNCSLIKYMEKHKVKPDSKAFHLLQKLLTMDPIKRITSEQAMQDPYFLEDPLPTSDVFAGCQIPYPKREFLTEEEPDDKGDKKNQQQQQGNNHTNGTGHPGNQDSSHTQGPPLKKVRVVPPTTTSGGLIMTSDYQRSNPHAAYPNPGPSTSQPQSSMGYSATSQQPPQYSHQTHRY

[17] = molecular target: Cyclin-dependent kinase 7 (Homo sapiens, UniProt P50613); assay type: functional;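 note: value comes from a kinome-wide kinase profiling panel in which CDK7 is one member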
[18] = molecular target: Cyclin-dependent kinase 9 (Homo sapiens, UniProt P50750); assay type: functional;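 note: value from the CDK9 entry of a kinome-spanning kinase panel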
[19] = molecular target: BDNF/NT-3 growth factors receptor (Homo sapiens, UniProt Q16620); assay type: functional;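 note: NTRK2 measured as one member of a broad kinome-wide kinase profiling panel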
BDNF/NT-3 growth factors receptor, sequence (Q16620 whole entry): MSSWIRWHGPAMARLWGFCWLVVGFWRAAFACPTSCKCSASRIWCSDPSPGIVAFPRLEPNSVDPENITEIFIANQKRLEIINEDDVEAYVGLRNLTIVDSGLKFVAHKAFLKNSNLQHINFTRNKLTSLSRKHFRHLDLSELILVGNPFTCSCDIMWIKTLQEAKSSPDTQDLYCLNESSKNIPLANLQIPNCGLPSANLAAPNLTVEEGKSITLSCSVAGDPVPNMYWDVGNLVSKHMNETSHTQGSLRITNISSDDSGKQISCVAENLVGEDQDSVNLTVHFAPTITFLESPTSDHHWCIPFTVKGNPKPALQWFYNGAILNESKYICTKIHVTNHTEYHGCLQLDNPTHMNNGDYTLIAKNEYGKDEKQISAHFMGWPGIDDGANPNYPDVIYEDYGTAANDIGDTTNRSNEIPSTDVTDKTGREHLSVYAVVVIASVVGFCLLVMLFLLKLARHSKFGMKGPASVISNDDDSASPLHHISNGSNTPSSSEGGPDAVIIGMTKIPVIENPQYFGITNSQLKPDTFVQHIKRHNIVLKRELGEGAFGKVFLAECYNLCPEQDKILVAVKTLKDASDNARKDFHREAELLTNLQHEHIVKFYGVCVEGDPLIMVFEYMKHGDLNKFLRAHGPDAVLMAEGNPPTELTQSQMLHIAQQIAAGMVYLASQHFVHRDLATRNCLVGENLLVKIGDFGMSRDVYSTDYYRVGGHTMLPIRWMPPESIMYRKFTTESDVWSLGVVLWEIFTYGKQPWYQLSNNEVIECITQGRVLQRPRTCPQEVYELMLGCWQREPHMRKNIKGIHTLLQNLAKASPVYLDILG

[20] = molecular target: cAMP-dependent protein kinase catalytic subunit alpha (Homo sapiens, UniProt P17612); assay type: functional
Streptokinase A = molecular target: T1, Streptokinase A (Streptococcus pyogenes serotype M1, UniProt P10520); assay: viability-normalized secreted streptokinase activity reduction – plasminogen activation absorbance, OD405, dose response (AID 1914); assay type: functional, Streptococcus pyogenes M1 GAS;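 note: secreted streptokinase activity via plasminogen activation per viability signal from cell pellet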
T1 sequence (P10520 whole entry): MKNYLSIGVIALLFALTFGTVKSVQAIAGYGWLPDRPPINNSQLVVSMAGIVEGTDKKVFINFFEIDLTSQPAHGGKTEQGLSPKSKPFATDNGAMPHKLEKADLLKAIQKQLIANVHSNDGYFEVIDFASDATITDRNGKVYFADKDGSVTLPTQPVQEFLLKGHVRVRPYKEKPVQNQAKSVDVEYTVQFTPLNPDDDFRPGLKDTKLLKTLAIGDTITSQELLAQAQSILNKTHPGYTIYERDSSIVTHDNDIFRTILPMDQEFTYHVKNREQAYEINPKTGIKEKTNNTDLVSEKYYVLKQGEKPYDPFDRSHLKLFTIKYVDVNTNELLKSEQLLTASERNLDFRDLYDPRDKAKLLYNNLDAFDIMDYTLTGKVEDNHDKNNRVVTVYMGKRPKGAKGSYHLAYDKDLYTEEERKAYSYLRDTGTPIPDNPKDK

Streptococcus = assay: GAS UMAA2166 growth inhibition – luminescence, BacTiterGlo, counter-screen for streptokinase expression inhibitor project, dose response (AID 1915); assay type: functional, organism-based;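 note: potency for reduction of bacterial viability or growth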
[21] = molecular target: T2, Sentrin-specific protease 6 (Homo sapiens, UniProt Q9GZR1); assay type: functional;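 note: Luminescence-based dose-response confirmatory assay of SENP6 inhibition, following up an ultra-high-throughput screen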
T2 sequence (Q9GZR1 whole entry): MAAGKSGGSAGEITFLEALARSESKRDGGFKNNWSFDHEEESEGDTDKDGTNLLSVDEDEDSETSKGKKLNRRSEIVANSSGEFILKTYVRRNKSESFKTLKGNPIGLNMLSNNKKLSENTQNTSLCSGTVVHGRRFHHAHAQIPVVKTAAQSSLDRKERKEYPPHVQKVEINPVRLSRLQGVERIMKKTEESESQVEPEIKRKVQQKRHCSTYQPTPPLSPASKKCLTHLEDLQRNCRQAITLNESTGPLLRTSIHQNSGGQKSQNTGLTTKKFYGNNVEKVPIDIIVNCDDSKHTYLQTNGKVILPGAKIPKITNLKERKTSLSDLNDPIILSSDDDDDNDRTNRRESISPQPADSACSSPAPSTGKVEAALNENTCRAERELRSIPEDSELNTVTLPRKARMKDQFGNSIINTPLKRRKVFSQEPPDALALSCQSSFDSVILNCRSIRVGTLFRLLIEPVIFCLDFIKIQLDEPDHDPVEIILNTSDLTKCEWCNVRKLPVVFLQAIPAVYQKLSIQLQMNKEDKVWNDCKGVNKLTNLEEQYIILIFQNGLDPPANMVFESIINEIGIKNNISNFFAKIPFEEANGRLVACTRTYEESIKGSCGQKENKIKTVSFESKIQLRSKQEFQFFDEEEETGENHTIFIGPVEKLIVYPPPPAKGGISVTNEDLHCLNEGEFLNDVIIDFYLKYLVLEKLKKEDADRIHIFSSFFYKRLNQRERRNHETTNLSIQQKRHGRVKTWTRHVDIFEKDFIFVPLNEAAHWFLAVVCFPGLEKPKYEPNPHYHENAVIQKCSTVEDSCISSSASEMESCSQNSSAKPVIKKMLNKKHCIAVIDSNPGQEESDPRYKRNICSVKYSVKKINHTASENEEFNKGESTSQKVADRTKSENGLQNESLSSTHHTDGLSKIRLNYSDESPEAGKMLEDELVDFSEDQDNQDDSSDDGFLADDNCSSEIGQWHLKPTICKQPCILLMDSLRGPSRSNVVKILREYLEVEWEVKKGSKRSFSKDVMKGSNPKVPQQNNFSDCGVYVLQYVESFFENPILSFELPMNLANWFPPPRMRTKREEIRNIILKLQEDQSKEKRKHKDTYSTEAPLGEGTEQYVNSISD

INS1 = assay: INS-1E survival protection against cytokine death – cell-based, luminescence, retest, dose response (AID 449756); assay type: functional; conditions: Rattus norvegicus;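 note: cell death triggered by IL-1 beta plus TNF-alpha plus IFN-gamma mixture; protective hits raise ATP signal compared with cytokine alone wells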

Ribosomal protein S6 kinase alpha-3, sequence (P51812 whole entry): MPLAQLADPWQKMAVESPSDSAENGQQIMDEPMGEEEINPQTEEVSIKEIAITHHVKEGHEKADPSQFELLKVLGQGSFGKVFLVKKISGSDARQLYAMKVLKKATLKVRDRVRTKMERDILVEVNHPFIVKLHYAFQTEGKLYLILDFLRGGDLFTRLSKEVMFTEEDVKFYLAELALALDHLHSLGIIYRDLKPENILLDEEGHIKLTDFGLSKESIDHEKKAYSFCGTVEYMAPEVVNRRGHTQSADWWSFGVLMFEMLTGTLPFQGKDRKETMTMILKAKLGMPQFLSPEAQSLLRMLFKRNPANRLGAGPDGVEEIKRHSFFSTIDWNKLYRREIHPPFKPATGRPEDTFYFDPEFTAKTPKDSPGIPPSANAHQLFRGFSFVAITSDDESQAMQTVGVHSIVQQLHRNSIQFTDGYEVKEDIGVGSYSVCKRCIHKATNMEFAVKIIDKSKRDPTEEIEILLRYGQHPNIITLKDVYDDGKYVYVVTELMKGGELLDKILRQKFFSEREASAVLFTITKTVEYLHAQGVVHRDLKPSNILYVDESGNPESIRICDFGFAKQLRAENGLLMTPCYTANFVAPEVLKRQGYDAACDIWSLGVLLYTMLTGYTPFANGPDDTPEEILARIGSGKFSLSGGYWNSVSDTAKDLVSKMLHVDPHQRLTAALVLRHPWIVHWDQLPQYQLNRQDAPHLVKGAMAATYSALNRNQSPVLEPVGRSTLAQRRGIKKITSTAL

SMILES	Ki [1]	Ki [2]	Ki [3]	Ki [4]	Ki [5]	Ki [6]	Ki [7]	Ki [8]	Ki [9]	Ki [10]	Ki [11]	Ki (Activated CDC42 kinase 1)	Ki [12]	Ki [13]	Ki [14]	Ki [15]	Ki [16]	Ki [17]	Ki [18]	Ki [19]	also measured
O=C(Nc1cc(-c2c[nH]c3ncccc23)cc(Cl)n1)c1ccccc1	> 2.51 µM (inactive)	> 3.98 µM (inactive)	> 3.16 µM (inactive)	> 3.16 µM (inactive)	> 3.16 µM (inactive)	> 6.31 µM (inactive)	> 5.01 µM (inactive)	> 3.98 µM (inactive)	> 5.01 µM (inactive)	> 3.98 µM (inactive)	> 2.51 µM (inactive)	> 3.98 µM (inactive)	> 3.98 µM (inactive)	> 2.51 µM (inactive)	> 3.16 µM (inactive)	> 6.31 µM (inactive)	0.0794 µM (active)	> 3.98 µM (inactive)	> 1.58 µM (inactive)	> 3.98 µM (inactive)	Ki [20]: > 2.51 µM (inactive)
CCN1C(=Cc2sc3ccccc3[n+]2C)C=Cc2cccc(C)c21	–	–	–	–	–	–	–	–	–	–	–	–	–	–	–	–	–	–	–	–	EC50 (Streptokinase A): > 150 µM (not active); EC50 (Streptococcus): 8.99 µM (active)
O=C(N/N=C/c1c(O)ccc2ccccc12)c1[nH]ncc1Br	–	–	–	–	–	–	–	–	–	–	–	–	–	–	–	–	–	–	–	–	IC50 [21]: > 100 µM (inactive); AC50 (INS1): 0.558 µM (active)
CNC[C@H](Cc1ccccc1)NC[C@@H](Cc1cccc2ccccc12)NCCc1ccc(C)cc1	–	–	–	–	–	–	–	–	–	–	–	–	–	–	–	–	–	–	–	–	EC50 (Streptokinase A): > 150 µM (not active); EC50 (Streptococcus): 7.51 µM (active); AC50 (INS1): 7.38 µM (active)
Nc1nnc2c(n1)CCCC2	–	–	–	–	–	–	–	–	–	–	–	–	–	–	–	–	–	–	–	–	IC50 [21]: 7.37 µM (active)
Nc1c(-c2ccc(NC(=O)Nc3cccc(C(F)(F)F)c3)cc2)cnc2c(-c3ccc4c(c3)OCO4)cnn12	> 2.51 µM (inactive)	> 3.98 µM (inactive)	> 3.16 µM (inactive)	> 3.16 µM (inactive)	0.00398 µM (active)	0.0316 µM (active)	> 5.01 µM (inactive)	> 6.31 µM (inactive)	> 5.01 µM (inactive)	> 3.98 µM (inactive)	> 3.98 µM (inactive)	0.2 µM (active)	> 3.98 µM (inactive)	> 2.51 µM (inactive)	> 3.16 µM (inactive)	0.316 µM (active)	0.0251 µM (active)	> 3.98 µM (inactive)	> 1.58 µM (inactive)	0.0126 µM (active)	Ki [20]: > 1.26 µM (inactive)
